Tests used:
[1] = Liver microsomal stability, mouse; assay type: in vitro ADME, CD1 mouse; conditions: protein 0.5 mg/mL
Description: Pooled liver microsomes from CD1 mouse, IGS Sprague-Dawley rat, Beagle dog, and mixed gender human were used for assays. Incubations (1 mL) consisted of liver microsomes (0.5 mg/mL), NADPH (1 mM) and 100 mM sodium phosphate buffer (pH 7.4). Following pre-incubation (10 min, 37 °C), reactions were initiated by spiking ACN/DMSO (80:20) stock solutions of GE phenolics (5 μL, 10 μM). Samples (100 μL) were withdrawn at 0, 5, 10, 15, 20 and 30 min and quenched with 200 μL acetonitrile containing internal standard. Concomitant NADPH-free control incubations were prepared similarly.

[2] = Mouse pharmacokinetic study of oral GE with and without ketoconazole, plasma with and without β-glucuronidase treatment; assay type: in vivo, male mice (C57BL6J); conditions: for Concentration Ratio (Total/Free) of GE Phenolics: GE administered group; for Concentration Ratio (Total/Free) of GE Phenolics / concentration at 0 h / concentration at 0.087 h / concentration at 0.167 h / concentration at 0.25 h / concentration at 0.5 h / concentration at 1 h / concentration at 2 h / concentration at 3 h / concentration at 4 h / concentration at 6 h / concentration at 8 h / concentration at 12 h: mouse plasma; for AUC(0-t) / Cmax / Tmax / concentration at 0 h / concentration at 0.087 h / concentration at 0.167 h / concentration at 0.25 h / concentration at 0.5 h / concentration at 1 h / concentration at 2 h / concentration at 3 h / concentration at 4 h / concentration at 6 h / concentration at 8 h / concentration at 12 h: male, C57BL6J; for AUC(0-t) / Cmax / Tmax: mouse, plasma, po, 250 mg/kg
Description: A solution formulation of GE was prepared by using 5% ethanol, 5% Tween 80, 40% polyethylene glycol, and 50% corn oil. The dose volume was 10 mL/kg and the dose administered was 250 mg/kg GE.
Pharmacokinetic study in male mice (C57BL6J, Harlan Laboratories, Indianapolis, IN, USA) was run with 36 animals in each group at a GE dose of 250 mg/kg with a dose volume of 10 mL/kg. One group was given GE alone and in the second group GE was co-administered with KTZ (50 mg/kg). A terminal sampling design was used to collect blood samples at 0 (pre-dose), 0.08, 0.16, 0.25, 0.5, 1, 2, 3, 4, 6, 8, and 12 h. At each time, 1 mL of blood was collected in ethylenediaminetetraacetic acid di-potassium salt (K2EDTA) tubes (BD Biosciences, Franklin Lakes, NJ, USA). Plasma was separated by centrifugation of samples at 4000 rpm for 10 min and stored below −60 °C till bioanalysis. All experiments were performed with approval from the Institutional Animal Care and Use Committee (IACUC, approval code: A14031). All animals were acclimatized for five days before dosing in the experimental area. Food and water was provided ad libitum throughout the study period. Animals were marked and housed (three per cage, n = 36 per group) in polypropylene cages and maintained in controlled environmental conditions with 12 h light and dark cycles. The temperature and humidity of the room was maintained between 22 ± 3 °C and 30% to 50%, respectively, and approximately 10–12 fresh air change cycles per hour.
To confirm the presence of GE glucuronide conjugates, plasma (100 μL) was treated with βgd (20 μL, 500 units) and incubated at 37 °C for 1 h. Each sample was analyzed twice with and without β-gd treatment. Samples without gde treatment were diluted with 20 μL of buffer. Total (conjugated + free) and free ginger phenolics data were reported following bioanalysis.
All in vitro and in vivo samples were processed by protein precipitation method. An aliquot (100 μL) of the sample was spiked with 200 μL of acetonitrile containing dihydrocapsaicin as internal standard (IS) and vortex mixed for 3 min. The tubes were centrifuged at 12,000 rpm for 10 min and an aliquot of supernatant was transferred into autosampler vials for analysis. The stock solutions of 6G, 8G, 10G, and 6S were prepared in ACN/water (70:30) at 1 mg/mL. A calibration curve (CC) range of 2–2000 ng/mL was employed for the quantification of analytes and IS concentration was 150 ng/mL for each analysis. The CC consisted of blank, blank with IS and seven non-zero calibration standards. The calibration standards were within ±15% of the nominal concentration and lower limit of quantification was within ±20% of nominal. All samples were analyzed using liquid chromatography tandem mass spectrometry (LC-MS/MS) method (Agilent 6410 series, Santa Clara, CA, USA). A positive ionization mode with multiple reaction monitoring (MRM, m/z Q1/Q3) of 6G (m/z 277.1/177.1, retention time (RT) 2.0 min), 8G (m/z 305.1/177.1, RT 4.0 min), 10G (m/z 333.1/177.1, RT 7.7 min), 6S (m/z 277.1/137.1, RT 5.1 min), and IS (m/z 308.2/137.1, RT 3.4 min) was employed. The ion spray voltage was set at 3500 V, ionization temperature was set to 300 °C and drying gas flow rate was 10 L/min. Data acquisition and quantitation were performed using Mass Hunter software (Agilent Technologies, Wilmington, DE, USA). Separation was achieved using HP1100 series LC (Agilent Technologies) with an Agilent Zorbax reversed-phase (SB-C18, 2.1 × 50 mm, 5.0 μm) column. A gradient method was employed to separate the individual GE phenolics using mobile phase A (0.1% formic acid in water) and mobile phase B (Acetonitrile). The gradient elution method with 50% B at 0 min, 90% B at 5 min, held for 2.1 min, back to 50% B at 7.1 min with a flow rate of 0.2 mL/min. An injection volume of 2 μL was used for analysis. […]

[3] = 250 mg/kg GE + 50 mg/kg KTZ oral, +KTZ −βgd

CCCCC[C@H](O)CC(=O)CCc1ccc(O)c(OC)c1 [6G, 6-gingerol]
remaining at 0.5 h, 10 µM ([1]; CD1, pooled liver microsomes, pH 7.4, substrate 10 µM, n = 2, read-out: % Remaining at 30 min): 30%
Intrinsic Clearance ([1]; mouse liver microsomes, substrate 10 µM, 45 mg protein/g liver): 10.5 mL/min/g Liver
AUClast Ratio ([2]; +KTZ +βgd, reference GE group co-administered with KTZ untreated with βgd): 63
AUClast Ratio ([2]; +KTZ +βgd, reference GE group untreated with βgd): 498
AUClast Ratio ([2]; +KTZ −βgd, reference GE group untreated with βgd): 8
Concentration Ratio (Total/Free) of GE Phenolics ([2]; 0 h): 0
Concentration Ratio (Total/Free) of GE Phenolics ([2]; 0.087 h): 0
Concentration Ratio (Total/Free) of GE Phenolics ([2]; 0.167 h): 0
Concentration Ratio (Total/Free) of GE Phenolics ([2]; 0.25 h): 3659
Concentration Ratio (Total/Free) of GE Phenolics ([2]; 0.5 h): 8723
Concentration Ratio (Total/Free) of GE Phenolics ([2]; 1 h): 0
Concentration Ratio (Total/Free) of GE Phenolics ([2]; 2 h): 53
Concentration Ratio (Total/Free) of GE Phenolics ([2]; 3 h): 290
Concentration Ratio (Total/Free) of GE Phenolics ([2]; 4 h): 491
Concentration Ratio (Total/Free) of GE Phenolics ([2]; 6 h): 391
Concentration Ratio (Total/Free) of GE Phenolics ([2]; 8 h): 0
Concentration Ratio (Total/Free) of GE Phenolics ([2]; 12 h): 0
AUC(0-t) ([2]; 250 mg/kg GE oral, −βgd): 37.7 ng·h/mL
Cmax ([2]; 250 mg/kg GE oral, −βgd): 27.2 ng/mL
Tmax ([2]; 250 mg/kg GE oral, −βgd): 2 h
AUC(0-t) [2, 3]: 300 ng·h/mL
Cmax [2, 3]: 257 ng/mL
Tmax [2, 3]: 0.5 h
concentration at 0 h ([2]; 250 mg/kg GE oral, 0 h, −βgd): 0 ng/mL
concentration at 0.087 h ([2]; 250 mg/kg GE oral, 0.087 h, −βgd): 0 ng/mL
concentration at 0.167 h ([2]; 250 mg/kg GE oral, 0.167 h, −βgd): 0.11 ± 0.08 ng/mL
concentration at 0.25 h ([2]; 250 mg/kg GE oral, 0.25 h, −βgd): 2.25 ± 1.73 ng/mL
concentration at 0.5 h ([2]; 250 mg/kg GE oral, 0.5 h, −βgd): 1.79 ± 1.82 ng/mL
concentration at 1 h ([2]; 250 mg/kg GE oral, 1 h, −βgd): 1.04 ± 0.79 ng/mL
concentration at 2 h ([2]; 250 mg/kg GE oral, 2 h, −βgd): 27.2 ± 38.4 ng/mL
concentration at 3 h ([2]; 250 mg/kg GE oral, 3 h, −βgd): 2.45 ± 1.73 ng/mL
concentration at 4 h ([2]; 250 mg/kg GE oral, 4 h, −βgd): 0.82 ± 1.16 ng/mL
concentration at 6 h ([2]; 250 mg/kg GE oral, 6 h, −βgd): 3.22 ± 4.03 ng/mL
concentration at 8 h ([2]; 250 mg/kg GE oral, 8 h, −βgd): 0.77 ± 0.57 ng/mL
concentration at 12 h ([2]; 250 mg/kg GE oral, 12 h, −βgd): 0.33 ± 0.44 ng/mL
concentration at 0 h ([2]; 250 mg/kg GE with 50 mg/kg ketoconazole oral, 0 h, −βgd): 0 ng/mL
concentration at 0.087 h ([2]; 250 mg/kg GE with 50 mg/kg ketoconazole oral, 0.087 h, −βgd): 0.31 ± 0.44 ng/mL
concentration at 0.167 h ([2]; 250 mg/kg GE with 50 mg/kg ketoconazole oral, 0.167 h, −βgd): 5.71 ± 4.25 ng/mL
concentration at 0.25 h ([2]; 250 mg/kg GE with 50 mg/kg ketoconazole oral, 0.25 h, −βgd): 35.9 ± 44.5 ng/mL
concentration at 0.5 h ([2]; 250 mg/kg GE with 50 mg/kg ketoconazole oral, 0.5 h, −βgd): 37900 ng/mL
concentration at 1 h ([2]; 250 mg/kg GE with 50 mg/kg ketoconazole oral, 1 h, −βgd): 104 ± 110 ng/mL
concentration at 2 h ([2]; 250 mg/kg GE with 50 mg/kg ketoconazole oral, 2 h, −βgd): 70900 ng/mL
concentration at 3 h ([2]; 250 mg/kg GE with 50 mg/kg ketoconazole oral, 3 h, −βgd): 65.2 ± 54.3 ng/mL
concentration at 4 h ([2]; 250 mg/kg GE with 50 mg/kg ketoconazole oral, 4 h, −βgd): 5.87 ± 1.18 ng/mL
concentration at 6 h ([2]; 250 mg/kg GE with 50 mg/kg ketoconazole oral, 6 h, −βgd): 1.09 ± 0.93 ng/mL
concentration at 8 h ([2]; 250 mg/kg GE with 50 mg/kg ketoconazole oral, 8 h, −βgd): 10.4 ± 11.1 ng/mL
concentration at 12 h ([2]; 250 mg/kg GE with 50 mg/kg ketoconazole oral, 12 h, −βgd): 0.74 ± 1.05 ng/mL
